These results are taken from US12319752B2, “Heparin-binding cationic peptide self-assembling peptide amphiphiles useful against drug-resistant bacteria” (priority 2016, dated 2025).

The test system of experiment [1] is MRSA. Description: Viable colony count assay (bactericidal effect, 4 h). The class given is cell-based, methicillin-resistant S. aureus (MRSA, ATCC #43300). As for the experimental part: The bactericidal effects of the peptides were examined using a viable colony count assay as well as the live/dead staining assay. For the viable colony count assay, bacteria were treated with peptides for 4 h and the resulting viable bacterial density of each sample was expressed by log10[CFU/mL]. For the Gram-positive bacteria tested, the decrease in bacterial density was dependent on the concentration of the ACA-PA (FIG. 8A). […] As for Gram-negative E. coli and MDR E. coli bacteria (FIG. 8B), the ACA nanorods, wherein the PA were added at a concentration above their CMC, had potent bactericidal effects. For example, the ACA nanorods at concentrations over 60 μM reduced the colony forming units of Gram-negative bacteria by about a five log unit reduction after 4 h compared with the untreated negative control sample.
In addition, ACA-PA were mixed with heparin at various weight ratios (1:1, 1:2, and 1:3 ACA-PA to heparin ratios) to block the Cardin motif groups on the PA. The ACA-PA concentration used to treat bacteria (MRSA and MDR E. coli) was a constant 80 μM and only varied in the concentration of heparin.
The viable count assay was performed to quantify the bactericidal activity of each peptide. Stock solutions of peptides were diluted in 3% TSB media to concentrations ranging from 20 μM to 100 μM immediately before experiments. Heparin-ACA-PA were also prepared by mixing the ACA-PA stock solution with heparin (sodium salt from porcine intestinal mucosa, Sigma, St. Louis, MO) to 1:1, 1:2 and 1:3 weight ratios in water, and a final concentration of ACA-PA in the heparin-ACA-PA at each heparin weight ratio was adjusted to 80 μM for each experiment. The bacteria (10^6 CFU/mL) were incubated with peptides at 37° C. for 4 h. After incubation, serial dilutions of samples were plated on TSB agar and then incubated at 37° C. overnight. The colonies from each spot were manually counted, and the CFU number for each sample was determined. Experiments were conducted in triplicate and results were expressed as the log 10 values of the CFU number in each sample. Data were expressed by stand error of the mean (±S.E.M.) and N=3, *p<0.05 compared with control samples and #p<0.05 compared with bacteria treated with 40 μM of ACA-PA.

Another experiment concerns MDR E. coli. The experiment can be described thus: Live/dead bacterial viability assay. The class given is cell-based, multidrug-resistant E. coli (MDR E. coli). Particulars: 4 h. The source says:
(§1) To further investigate bacteria viability after treatment with ACA-PA, the live/dead assay was used to confirm the antibacterial actions of ACA-PA. Dead bacteria with disrupted membrane were stained a first color, whereas live bacteria were stained with a second color fluorescence. A large amount of robust MRSA bacteria in the untreated control sample appeared a second color and in spherical shapes (FIG. 10A). […] This antibacterial activity was dependent on the concentration of PA, yet was not determined by peptide self-assembly. Nonetheless, Gram-negative MDR E. coli responded to the treatment of ACA-PA differently from Gram-positive MRSA.
(§2) The live/dead bacterial viability assay was conducted to further assess the bactericidal efficacy of ACA-PA using the LIVE/DEAD BacLight Bacterial Viability Kits (Kits 71007, Molecular Probes, Eugene, OR, USA). MRSA and MDR E. coli bacteria (100 μl, 10^6 CFU/mL) were incubated with 80 μM and 40 μM of peptide in 3% TSB media at 37° C. for 4 h on a 96-well plate, and the control samples of bacteria were incubated in 3% TSB media only. […] The live bacteria stained fluorescent a second color (SYTO9 nucleic acid stain), whereas the dead bacteria with disrupted membranes stained fluorescent a first color (propidium iodide, PI).

Experiment [2] has as its system MRSA. The experiment can be described thus: Live/dead bacterial viability assay. The class given is cell-based, methicillin-resistant S. aureus (MRSA). As to conditions: 4 h.
From the text: as §1, §2

Each structure is given as a SMILES string. Residues, ends and D or L forms follow the SMILES beside them. *: point of attachment. Palmitoyl = CCCCCCCCCCCCCCCC(=O)*

`CCCCCCCCCCCCCCCC(=O)N[C@H](C(=O)N[C@H](C(=O)N[C@H](C(=O)N[C@H](C(=O)N[C@@H](CCCCN)C(=O)N[C@@H](CCCCN)C(=O)N[C@@H](CCCCN)C(=O)N[C@@H](CCCCN)C(=O)NCC(=O)N[C@@H](C)C(=O)N[C@@H](CCCCN)C(=O)N[C@@H](CCCCN)C(=O)N[C@@H](C)C(=O)N[C@@H](CCCNC(=N)N)C(=O)N[C@@H](C)C(=O)N[C@@H](C)C(=O)N[C@@H](CCCCN)C(=O)N[C@@H](CCCCN)C(=O)N[C@@H](C)C(=O)N[C@@H](CCCNC(=N)N)C(=O)N[C@@H](C)C(=O)O)C(C)C)C(C)C)C(C)C)C(C)C` [ACA-PA, C16-V4K4G(AKKARA)2 (SEQ ID NO: 7)] (Palmitoyl-VVVVKKKKGAKKARAAKKARA-OH; N-terminus and C-terminus assumed): the “decrease in bacteria density” value in the experiment on MRSA [1] (MRSA (Gram-positive), 60 to 100 μM) is listed as ~100 fold. The “number of viable bacteria colonies after mixing with heparin” value in the experiment with MRSA [1] (MRSA, 80 μM ACA-PA, 1:1, 1:2, 1:3 ACA-PA to heparin weight ratios) was “positively proportional to the amount of heparin added”. The “toxicity towards bacteria after mixing with heparin” value in the experiment with MRSA [1] (MRSA, 80 μM ACA-PA, 1:3 ACA-PA to heparin weight ratio, 4 h) is recorded as “no toxicity towards bacteria”. Besides, in the experiment with MRSA [1] (MRSA, over 80 μM, 4 h), the “decline in bacteria density” value is 100 fold. Besides, the “decrease of colony forming units” value in the experiment on MRSA [1] (MRSA, over 80 μM, 4 h) is “two”. Besides, the “bacterial viability (live/dead staining)” value in the experiment with MDR E. coli (40 μM) is on record as “unable to induce considerable cell mortality”; with MDR E. coli (80 μM), “enhanced the number of dead bacteria drastically”; in the experiment on MRSA [2] (40 μM) it was “markedly reduced MRSA viability”; in the experiment on MRSA [2] (80 μM) it was “coverage of dead bacteria increased with low density of live bacteria”.
